Test results: patent publication US4317768A, “Dihydropyridine derivatives as stabilizers for vinyl chloride polymers” (priority 1977, dated 1982)

What was measured:
[1] = Static thermostability (GARDNER method), rigid PVC sheets, 210° C., 0.3 part stabilizer
In short: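 Rigid sheets calendered at 160° C. from powdered PVC resin with 0.3 part by weight stabilizer (dihydropyridine or 2-phenyl-indole reference) plus usual ingredients. Sheets heated in oven at 210° C., removed every three minutes over 21 minutes until incipient carbonization. Coloration scored against GARDNER scale reference figures.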

[2] = Static thermostability (GARDNER method), rigid PVC sheets, 185° C., 0.3 part stabilizer
Description: This study was carried out according to the GARDNER method, described in British Pat. No. 1,489,685.
The reference substance was 2-phenyl-indole, a well-known and widely used stabilizer.
The stabilizer (dihydropyridine or 2-phenyl-indole) and the other usual ingredients were mixed with powdered vinyl resins and the mixtures were calendered at a temperature of 160° C. to give rigid sheets.
The sheets were then heated in a thermostated oven (185° C. or 210° C.) for different intervals of time until incipient carbonization.
The coloration of the samples was compared to a standard scale of coloration, known as the GARDNER scale and was expressed in terms of the reference figures of the GARDNER scale.
This study was carried out with the following resin:
Polyvinyl chloride resin
SL 2016 is a solution of zinc-2-ethyl-hexanoate in a mixture of hydrocarbons boiling between 158° C. and 184° C.
A second trial was performed at a temperature of 185° C., with a resin containing 0.3 part of stabilizer, the samples being removed from the oven every 6 minutes over a period of 24 minutes, then every 3 minutes until the 42nd minute (or until carbonization).

[3] = Comparison with stabilizer G1, 0.1 part, 185° C.
Description: A test was also carried out with the following compound:
Another test was made with the same resin but containing 0.1 part of stabilizer.

[4] = Comparison with stabilizer G1, rigid co-polymer (12.5 to 13.5% of acetate), 0.5 part, 185° C.
Description: Another comparison was made with the following rigid co-polymer: […]

[5] = Polarographic study of the oxidation potential; type: physicochemical; conditions: acetonitrile, 0.1 M lithium perchlorate, vitrous carbon electrode, calomel reference
Description: By a polarographic study of their oxidation potential, compared to well-known antioxidants such as 2,6-diterbutyl-4-methyl-phenol, 2-terbutyl-4-methoxy-phenol, 4-methoxy-phenol and hydroquinone.
Reference electrode: Calomel electrode containing a saturated solution of anhydrous lithium perchlorate as bridge liquid.
Working electrode: Vitrous carbon rotating electrode (2,500 r.p.m.)
Counter-electrode: Platinum electrode
Acetonitrile containing less than 0.1% of water and presenting no polarographic waves between -2.5 V and +2.5 V.
Anhydrous lithium perchlorate containing less than 1% of water.
A 0.1 M solution of lithium perchlorate in acetonitrile, treated and preserved on a 4 A molecular sieve.
Amplitude of exploration: 0 to 2 V
Speed of exploration: 10 mV/second
Sensitivity: 1.25 μA to 50 μA
Mean concentration: about 0.3×10^-3 mol/liter
Between each measurement, the vitrous carbon electrode and the platinum electrode were carefully cleaned with Joseph paper.

[6] = Photostabilizing power, tetrahydrofuran solution of plates exposed to the sun, French Pharmacopeia
Description: (§1) The photostabilizing power of the compounds of the invention was studied by exposing to the sun polyvinyl chloride plates which had been stabilized either by a dihydropyridine of the invention or by 2-phenyl-indole, or again by 2-(3'-methoxy-4'-hydroxy)-indole. This last product is an extremely valuable thermostabilizer for thermoplastic resins and is described in British Pat. No. 1,489,685.
(§2) The resin given hereunder was prepared by mixing on cylinders at 160° C.:
(§3) The plates of stabilized polyvinyl chloride, together with a plate which had not been stabilized, were stood in the sun under the same conditions and at the same time. Their colour was measured after 6 hours and 12 hours of exposure.
(§4) The coloration of the plates was determined according to two methods:
On a solution of these plates in tetrahydrofuran, the coloration of th solution being measured according to the French Pharmacopeia (IXth edition, II-338).

[7] = Photostabilizing power, PVC plates exposed to the sun, GARDNER scale
Description: as §1, §2, §3, §4
On the plates themselves, following the GARDNER scale, as in the section on thermostability,
The sign + means that the coloration lies between the lower unit and the upper half-unit. Thus, 3+ means that the coloration lies between 3 and 3.5. Similarly, the sign - means that the coloration lies between the lower half-unit and the upper unit.

[8] = Comparison with stabilizer G1, rigid co-polymer, 0.5 part, 185° C.
Description: (b) Comparison with stabilizer G1
Stabilizer G1 is a mixture of 1,4-butanediol-β-aminocrotonate and of β-aminocrotonate of alcohols containing from 16 to 18 carbon atoms.

Compound: C#CCOC(=O)C1=C(C)NC(C)=C(C(=O)OCC#C)C1 [Compound 2, 2,6-Dimethyl-3,5-dicarbopropargyloxy-1,4-dihydropyridine]
- coloration, GARDNER scale ([1]; 0 min): 1
- coloration of the resins, in words ([1]; 0 to 3 minutes): considerably less
- coloration, GARDNER scale ([1]; 3 min): 1
- thermostabilizing power compared to 2-phenyl-indole, in words ([1]; 210° C.): greatly superior to 2-phenyl-indole
- coloration, GARDNER scale ([1]; 6 min): 1
- coloration, GARDNER scale ([1]; 9 min): 4
- coloration, GARDNER scale ([1]; 12 min): 8
- coloration, GARDNER scale ([1]; 15 min): 12
- coloration, GARDNER scale ([1]; 18 min): Burnt
- coloration, GARDNER scale ([2]; 0 min): 1
- coloration, GARDNER scale ([2]; 6 min): 1
- coloration, GARDNER scale ([2]; 12 min): 2
- coloration, GARDNER scale ([2]; 18 min): 4
- coloration, GARDNER scale ([2]; 24 min): 6
- coloration, GARDNER scale ([2]; 27 min): 7
- coloration, GARDNER scale ([2]; 30 min): 8.5
- coloration, GARDNER scale ([2]; 33 min): 9
- coloration, GARDNER scale ([2]; 36 min): 10.5
- coloration, GARDNER scale ([2]; 39 min): 12
- coloration, GARDNER scale ([2]; 42 min): 18
- coloration, GARDNER scale ([3]; 0 min): 1
- coloration, GARDNER scale ([3]; 2 min): 1
- coloration, GARDNER scale ([3]; 4 min): 2
- coloration, GARDNER scale ([3]; 6 min): 4
- coloration, GARDNER scale ([3]; 8 min): 8
- coloration, GARDNER scale ([3]; 10 min): 10
- coloration, GARDNER scale ([3]; 12 min): 12
- coloration, GARDNER scale ([3]; 14 min): 13
- coloration, GARDNER scale ([4]; 0 min): 1
- coloration, GARDNER scale ([4]; 2 min): 1
- coloration, GARDNER scale ([4]; 4 min): 2
- coloration, GARDNER scale ([4]; 6 min): 3
- coloration, GARDNER scale ([4]; 10 min): 8.5
- coloration, GARDNER scale ([4]; 12 min): 13
- coloration, GARDNER scale ([4]; 14 min): 17
- coloration, GARDNER scale ([4]; column without printed time, between 6 and 10 min): 4
- Oxidation potential [5]: 0.80 ± 0.01 volts
- Coloration of the plates FRENCH PHARMACOPEIA ([6]; exposure to sun 0): JV6
- Coloration of the plates FRENCH PHARMACOPEIA ([6]; exposure to sun 6h): JV6
- Coloration of the plates FRENCH PHARMACOPEIA ([6]; exposure to sun 12h): JV5
- Coloration of the plates GARDNER ([7]; exposure to sun 0): 1
- Coloration of the plates GARDNER ([7]; exposure to sun 6h): 1
- Coloration of the plates GARDNER ([7]; exposure to sun 12h): 1.5
- coloration, GARDNER scale ([8]; 0 min): 1
- coloration, GARDNER scale ([8]; 2 min): 1
- coloration, GARDNER scale ([8]; 4 min): 1.5
- coloration, GARDNER scale ([8]; 6 min): 5
- coloration, GARDNER scale ([8]; 8 min): 10
- coloration, GARDNER scale ([8]; 10 min): 12
- coloration, GARDNER scale ([8]; 12 min): 16
